Data from patent US20230117328A1, “METHODS TO TREAT CANCER USING (R)-N-(3-FLUORO-4-((3-((1-HYDROXYPROPAN-2-YL)AMINO)-1H-PYRAZOLO[3,4-B]PYRIDIN-4-YL)OXY)PHENYL)-3-(4-FLUOROPHENYL)-1-ISOPROPYL-2,4-DIOXO-1,2,3,4-TETRAHYDROPYRIMIDINE-5-CARBOXAMIDE” (Array BioPharma Inc., priority 2020, published 2023).
“Also recorded” adds a separate entry of the source.

Legend:
Aqueous solubility = type: physicochemical
C57BL/6 mice = assay: Ocular histopathology (retina) in mice at terminal (Day 38) and recovery (Day 66) necropsy; type: in vivo; details: for animals affected by swelling of rod and cone processes (incidence and grade): terminal necropsy
Procedure: Eyes were harvested for histopathology assessment from the tumor-naïve groups as the terminal necropsy cohort on Day 38, the last day the 28-day dosing period. Since not all terminal necropsy groups were dosed for the entirety of the 28-day dosing period, some groups effectively experienced a 1-3 week recovery period. Eyes were harvested for histopathology assessment from the tumor-bearing groups as the recovery necropsy cohort on Day 66, the last day of the 28-day recovery period. Since not all recovery necropsy groups were dosed for the entirety of the 28-day dosing period, some of these groups effectively experienced an extended recovery period beyond the 28-day recovery period of an additional 1-3 weeks. […] This finding was only visualized under epifluorescent illumination and was characterized by scattered individual processes that were increased in diameter up to five times the surrounding processes, with increased autofluorescence. […] It remained unclear whether these findings were adverse, as no degenerative changes were observed. If the material affected vision, it would be considered adverse; however, as this study was not designed to test for alterations in vision, adversity could not be determined.
Terminal necropsy from non-tumor-bearing cohorts occurred at 28 days from the start of dosing, and eyes from 4-5 animals in each group were harvested for histopathology assessment. Since not all terminal necropsy groups were dosed for the entirety of the 28-day dosing period, some groups effectively experienced a 1-3 week recovery period. Recovery sacrifice from tumor-bearing cohorts occurred at 28 days after the 28-day dosing period, and eyes from 5 animals in each group were harvested for histopathology assessment. Since not all recovery necropsy groups were dosed for the entirety of the 28-day dosing period, some groups effectively experienced an extended recovery period beyond the 28-day recovery period of 1-3 weeks. Briefly, animals were euthanized by CO2 inhalation and eyes were harvested with forceps and placed in 1.5 mL modified Davidson's Fixative (Electron Microscopy Science, Cat. No. 64133-50, lot no. 190621-08) for up to 24 hours at room temperature. Tissues were then transferred to 1.5 ml 10% neutral buffered formalin (Thermo Scientific, cat. no. 9400-5, lot no. 435456) at room temperature. Fixed tissues were submitted Vet Path Services, Inc. (Mason, Ohio) for histological processing and microscopic evaluation.
Provantis™ pathology software v 10.1.0.1 was utilized for data capture and table generation. Histopathology grades were assigned as grade 1 (minimal), grade 2 (mild), grade 3 (moderate), grade 4 (marked), or grade 5 (severe) based on an increasing extent of change, unless otherwise specified. H&E stained slides were evaluated with standard light microscopy and epifluorescence (450-490 nm excitation).

Sprague Dawley rats = assay: 28-day repeat dose oral toxicity and toxicokinetic study with 28-day recovery period; type: in vivo
[1] = Tolerability (body weight loss, deaths) in MC-38 tumor-bearing cohorts; type: in vivo; details: for Deaths (any cause) / Maximum % Body Weight Loss: MC-38 tumor-bearing mice
Procedure: As monotherapy, anti-PD-1 was administered twice weekly (BIW) for 2 consecutive weeks by intraperitoneal (IP) injection at 200 μg/mouse (Days 10, 13, 17, and 20).
Animals were monitored for tumor growth and body weight 2-3 times per week based on outgrowth kinetics. Tumor diameter was measured with digital calipers, and the tumor volume in mm^3 was calculated by the formula: Volume=((width)^2×length)/2. Animals were removed from study if found moribund or if tumor volume exceeded 1500 mm^3.
Any animals remaining with no palpable tumors were scored as cures.
Survival was defined as morbidity, mortality or tumor size exceeding 1500 mm^3.

P-gp [2] = target: T1, P-gp (Homo sapiens, UniProt P08183); assay: P-gp substrate assessment in vitro; type: in vitro ADME
syngeneic tumor = assay: Re-challenge of cured tumor-bearing mice with the same syngeneic tumor; type: in vivo; details: tumor-bearing mice cured following treatment with Compound 1
CYP2D6 = CYP2D6 (Homo sapiens, UniProt P10635); assay: In vitro metabolism by CYP2D6; type: in vitro ADME
BCRP = target: T2, BCRP (Homo sapiens, UniProt Q9UNQ0); assay: BCRP substrate assessment in vitro; type: in vitro ADME
T2 sequence (Q9UNQ0 1-655): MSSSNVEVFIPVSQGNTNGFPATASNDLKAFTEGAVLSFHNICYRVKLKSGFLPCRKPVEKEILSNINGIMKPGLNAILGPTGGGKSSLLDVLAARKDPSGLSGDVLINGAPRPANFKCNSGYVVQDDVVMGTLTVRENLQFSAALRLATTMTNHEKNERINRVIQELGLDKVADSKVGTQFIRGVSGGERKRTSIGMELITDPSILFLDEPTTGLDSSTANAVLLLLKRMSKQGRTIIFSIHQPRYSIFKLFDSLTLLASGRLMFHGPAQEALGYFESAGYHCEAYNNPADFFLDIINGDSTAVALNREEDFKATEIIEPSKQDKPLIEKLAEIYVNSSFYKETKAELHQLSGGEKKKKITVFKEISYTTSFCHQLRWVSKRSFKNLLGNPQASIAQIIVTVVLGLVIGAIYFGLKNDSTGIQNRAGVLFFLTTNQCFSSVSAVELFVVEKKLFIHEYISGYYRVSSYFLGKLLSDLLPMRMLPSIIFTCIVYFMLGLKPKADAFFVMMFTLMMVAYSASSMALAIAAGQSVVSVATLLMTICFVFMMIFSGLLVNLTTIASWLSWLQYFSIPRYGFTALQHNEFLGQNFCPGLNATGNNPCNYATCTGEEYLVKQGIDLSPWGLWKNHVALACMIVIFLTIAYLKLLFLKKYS

P-gp [3] = target: T1, P-gp; assay: P-gp inhibition; type: in vitro ADME
in vivo = details: female, rat
CYP3A4 = CYP3A4 (Homo sapiens, UniProt P08684); assay: In vitro metabolism by CYP3A4; type: in vitro ADME
[4] = oral QD 28 days at 30, 100 or 300/200 mg/kg
[5] = Compound 1 50 mg/kg PO BID Days 10-16 (7 days) in combination with anti-PD-1 200 μg IP BIW (Days 10, 13, 17, 20)
[6] = Compound 1 50 mg/kg PO BID Days 10-16 and Days 24-30 (interval schedule) in combination with anti-PD-1 200 μg IP BIW (Days 10, 13, 17, 20)
[7] = Compound 1 50 mg/kg PO BID Days 10-23 (14 days) in combination with anti-PD-1 200 μg IP BIW (Days 10, 13, 17, 20)
[8] = Compound 1 50 mg/kg PO BID Days 10-30 (21 days) in combination with anti-PD-1 200 μg IP BIW (Days 10, 13, 17, 20)
[9] = Compound 1 50 mg/kg PO BID Days 10-37 (28 days) in combination with anti-PD-1 200 μg IP BIW (Days 10, 13, 17, 20)
[10] = Compound 1 monotherapy, 50 mg/kg PO BID Days 10-37 (28 days)

T1 sequence (P08183 whole entry): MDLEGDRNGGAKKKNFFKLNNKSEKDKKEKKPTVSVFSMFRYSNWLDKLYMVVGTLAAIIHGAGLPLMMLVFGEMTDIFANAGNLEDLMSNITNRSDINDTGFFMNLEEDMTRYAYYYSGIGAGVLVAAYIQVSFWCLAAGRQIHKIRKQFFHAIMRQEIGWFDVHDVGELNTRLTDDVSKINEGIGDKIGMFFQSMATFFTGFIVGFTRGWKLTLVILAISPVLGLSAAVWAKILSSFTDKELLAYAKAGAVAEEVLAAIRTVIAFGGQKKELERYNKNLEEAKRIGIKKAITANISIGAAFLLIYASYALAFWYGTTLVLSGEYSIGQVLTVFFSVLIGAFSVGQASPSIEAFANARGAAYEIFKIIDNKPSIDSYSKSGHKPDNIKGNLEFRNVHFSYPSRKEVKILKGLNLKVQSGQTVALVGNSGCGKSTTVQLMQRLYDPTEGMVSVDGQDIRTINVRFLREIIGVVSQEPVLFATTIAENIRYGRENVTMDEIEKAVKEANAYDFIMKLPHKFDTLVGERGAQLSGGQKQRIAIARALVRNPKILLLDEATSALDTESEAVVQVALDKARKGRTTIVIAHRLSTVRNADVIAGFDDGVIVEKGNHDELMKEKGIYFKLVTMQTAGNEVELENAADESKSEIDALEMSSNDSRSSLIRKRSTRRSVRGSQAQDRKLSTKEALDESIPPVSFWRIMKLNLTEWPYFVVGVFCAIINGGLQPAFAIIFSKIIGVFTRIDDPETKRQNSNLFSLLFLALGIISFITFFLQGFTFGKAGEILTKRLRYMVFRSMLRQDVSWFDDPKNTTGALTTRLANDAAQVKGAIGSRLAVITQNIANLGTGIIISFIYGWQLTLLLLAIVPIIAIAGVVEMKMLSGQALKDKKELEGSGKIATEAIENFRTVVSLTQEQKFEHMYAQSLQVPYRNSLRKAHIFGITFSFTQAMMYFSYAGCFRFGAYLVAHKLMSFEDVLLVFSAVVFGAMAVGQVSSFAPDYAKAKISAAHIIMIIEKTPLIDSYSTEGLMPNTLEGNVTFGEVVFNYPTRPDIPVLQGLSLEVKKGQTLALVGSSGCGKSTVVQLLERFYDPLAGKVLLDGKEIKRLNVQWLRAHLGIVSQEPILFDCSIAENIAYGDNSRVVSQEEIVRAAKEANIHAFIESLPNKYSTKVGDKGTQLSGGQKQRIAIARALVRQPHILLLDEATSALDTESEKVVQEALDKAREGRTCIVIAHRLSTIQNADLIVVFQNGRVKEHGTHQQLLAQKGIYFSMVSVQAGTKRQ
CYP3A4, sequence (P08684 whole entry): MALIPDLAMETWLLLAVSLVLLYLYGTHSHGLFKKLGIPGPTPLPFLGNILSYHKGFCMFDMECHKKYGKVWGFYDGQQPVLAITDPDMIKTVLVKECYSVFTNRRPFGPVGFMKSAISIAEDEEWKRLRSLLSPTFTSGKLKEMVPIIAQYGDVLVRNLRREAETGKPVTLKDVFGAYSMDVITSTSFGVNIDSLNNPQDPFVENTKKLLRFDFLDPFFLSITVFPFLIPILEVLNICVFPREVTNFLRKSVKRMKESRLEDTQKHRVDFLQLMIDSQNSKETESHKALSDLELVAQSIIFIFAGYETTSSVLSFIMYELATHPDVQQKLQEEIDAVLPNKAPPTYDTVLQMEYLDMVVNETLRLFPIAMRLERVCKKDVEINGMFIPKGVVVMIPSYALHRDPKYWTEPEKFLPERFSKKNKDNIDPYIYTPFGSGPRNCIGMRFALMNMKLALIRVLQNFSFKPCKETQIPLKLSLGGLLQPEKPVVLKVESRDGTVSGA
CYP2D6, sequence (P10635 whole entry): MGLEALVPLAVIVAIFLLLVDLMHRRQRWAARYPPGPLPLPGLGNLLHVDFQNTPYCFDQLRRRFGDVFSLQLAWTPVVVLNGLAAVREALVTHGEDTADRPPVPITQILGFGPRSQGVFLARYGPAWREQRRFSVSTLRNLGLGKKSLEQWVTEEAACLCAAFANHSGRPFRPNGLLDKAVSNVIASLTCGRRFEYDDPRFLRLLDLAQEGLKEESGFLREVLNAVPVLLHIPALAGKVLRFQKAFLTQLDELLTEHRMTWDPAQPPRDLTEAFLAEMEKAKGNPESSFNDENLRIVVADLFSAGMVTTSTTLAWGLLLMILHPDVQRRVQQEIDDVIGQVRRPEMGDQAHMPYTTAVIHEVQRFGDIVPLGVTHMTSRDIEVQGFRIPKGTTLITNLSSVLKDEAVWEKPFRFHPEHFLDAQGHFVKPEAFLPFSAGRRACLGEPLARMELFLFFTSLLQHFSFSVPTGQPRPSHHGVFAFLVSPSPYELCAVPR

Structure (SMILES): CC(C)n1cc(C(=O)Nc2ccc(Oc3ccnc4[nH]nc(N[C@H](C)CO)c34)c(F)c2)c(=O)n(-c2ccc(F)cc2)c1=O [Compound 1, (R)—N-(3-fluoro-4-((3-((1-hydroxypropan-2-yl)amino)-1H-pyrazolo[3,4-b]pyridin-4-yl)oxy)phenyl)-3-(4-fluorophenyl)-1-isopropyl-2,4-dioxo-1,2,3,4-tetrahydropyrimidine-5-carboxamide]
- aqueous solubility (Aqueous solubility): pH dependent
- abnormal ocular observation at recovery sacrifice (unlikely to be related to the test article) (C57BL/6 mice; Day 66, Compound 1 for four weeks in combination with anti-PD-1): unilateral focal atrophy of the outer nuclear layer in Animal 4
- recovery period within which Compound 1-related microscopic retinal changes may be resolved (C57BL/6 mice; mice, histopathology assessment of the retinas): 1-4 week
- animals affected by swelling of rod and cone processes (incidence and grade) (C57BL/6 mice; Compound 1 for four weeks as monotherapy): three animals were minimally affected and two animals were mildly affected
- animals affected by swelling of rod and cone processes (incidence and grade) (C57BL/6 mice; Compound 1 for four weeks in combination with anti-PD-1): four of five animals were minimally affected
- test article-related ocular changes at recovery sacrifice (C57BL/6 mice; tumor-bearing mice, Day 66, 28 days after the 28-day dosing period): no definitively Compound 1-related changes were observed; also recorded: no definitively test article-related changes were observed
- test article-related microscopic changes in retina at terminal necropsy (C57BL/6 mice; tumor-naive mice, Day 38, Compound 1 50 mg/kg BID for 28 days (four weeks), as monotherapy or in combination with anti-PD-1, seen only under epifluorescent illumination, 50 mg/kg): multifocal swelling of the rod and cone processes in the retina; also recorded: multifocal swelling of the Rod and Cone processes in retina
- adversity of changes in the eyes and testes (Sprague Dawley rats; oral QD 28 days): considered to be adverse
- dose with structural/functional changes in the eyes (outer retinal atrophy), female (Sprague Dawley rats; [4]): 30 mg/kg
- dose with structural/functional changes in the eyes (outer retinal atrophy), males (Sprague Dawley rats; [4]): 100 mg/kg
- reversibility of outer retinal atrophy (Sprague Dawley rats; oral QD 28 days, 28-day recovery period): unrecoverable
- tolerability of doses and schedules ([1]; MC-38 study, Compound 1 50 mg/kg BID 7-28 days, monotherapy or with anti-PD-1 200 μg BIW, 50 mg/kg): tolerated as monotherapy and in combination with anti-PD-1; also recorded: tolerated at these doses and schedules
- Deaths (any cause) [1, 5]: 0/8
- Maximum % Body Weight Loss [1, 5]: 0.00%
- Deaths (any cause) [1, 6]: 0/8
- Maximum % Body Weight Loss [1, 6]: 0.23%
- Deaths (any cause) [1, 7]: 0/8
- Maximum % Body Weight Loss [1, 7]: 0.00%
- Deaths (any cause) [1, 8]: 0/8
- Maximum % Body Weight Loss [1, 8]: 2.98%
- Deaths (any cause) [1, 9]: 1/8
- Maximum % Body Weight Loss [1, 9]: 0.00%
- Deaths (any cause) [1, 10]: 2/8
- Maximum % Body Weight Loss [1, 10]: 5.17%
- P-gp substrate status (P-gp [2]): substrate of P-gp and BCRP
- response of cured mice to subsequent re-challenge with the same syngeneic tumor (syngeneic tumor): resistant to subsequent re-challenge with the same syngeneic tumor
- metabolizing enzyme in vitro (CYP2D6): primarily metabolized by CYP3A4 and CYP2D6
- BCRP substrate status (BCRP): substrate of P-gp and BCRP
- P-gp inhibitor status (P-gp [3]): inhibitor of P-gp
- NOAEL at 7 days (in vivo): 200 mg/kg
- metabolizing enzyme in vitro (CYP3A4): primarily metabolized by CYP3A4 and CYP2D6
